Key:
CD4+ T-cell = test: Interferon-γ ELISPOT assay of CD4+ T-cell responses in subjects with abnormal Pap smear; type: cell-based, human
Protocol: The role of CD4+ T-cell responses to the HPV-16 E6 and E7 proteins was examined in the outcomes of subjects being studied for abnormal Papanicolaouu (Pap) smear results. Subjects with a recent history of abnormal Papanicolaouu smear were eligible, and colposcopy guided biopsy was performed at enrollment. Interferon-γ enzyme-linked immunospot assay, and fluorescent activated cell sorter analysis were performed. Subjects with histological diagnoses of cervical intraepithelial neoplasia 1, 2, or 3 were considered to have short-term persistence of cervical abnormality and were called “persistors” (n=51) while those of normal histology were designated to be “regressors” (n=33). For the CD4+ T-cell responses, not only were the responses to E6 overall (Table 8) associated with a favorable clinical outcome, but also to a number of regions within the E6 protein. Furthermore, the regressors were more likely to have 2 or more E6-positive or E7-positive peptide regions as compared to the persistors (p=0.0035 or p=0.042 respectively) (Table 9).

CD8 T-cell = test: ELISPOT assay of CD8 T-cell responses in women followed for abnormal Pap smear; type: cell-based, human; settings: women with abnormal Pap smear
Protocol: Women who were followed, but untreated for abnormal Pap smear results, were enrolled. HPV-DNA testing using the Linear Array HPV Geotyping Test (Roche Diagnostics, Indianapolis, Ind.) and enzyme-linked immunospot (ELISPOT) assay using the HPV 16 E6 and E7 antigens were performed. The subjects were categorized into three groups: regressor (n=32), persistor/progressor (n=33), or indeterminate (n=20) based on comparisons of pathological diagnoses (Pap smear or biopsy) between the last clinic visit and the current clinic visit at which blood samples were collected.

[1] = test system: Human Leukocyte Antigen-matched HPV16 E7 11-20-pulsed targets; settings: cited from earlier work
[2] = test system: peptide-pulsed Epstein-Barr Virus-transformed B-lymphoblastoid cell line cells; test: Chromium release assay, subject 18 T-cell clones as effectors; type: cell-based, human; settings: clones #83-18 and #87-18
Protocol: (§1) To identify putative restricting Human Leukocyte Antigen class I molecule, enzyme-linked immunospot assays were performed, as described above, using autologous Epstein-Barr Virus-transformed B-lymphoblastoid cell line cells sharing one or a few class I molecules with the subjects. The results were confirmed using chromium release assays in which at least two autologous Epstein-Barr Virus-transformed B-lymphoblastoid cell line cells expressing the putative Human Leukocyte Antigen class I molecule were tested. The Epstein-Barr Virus-transformed B-lymphoblastoid cell line cells were labeled with 100 μCi of sodium chromate (Na2^51CrO4), and were incubated with 10 μM of positive peptide. After plating the cells in 96-wells plate at 3×10^3/well, effector cells were added at multiple effector to target cell (E:T) ratios. After 5 hr of incubation, the supernatants were harvested and radioactivity was counted with a gamma counter (Packard Instruments, Meriden, Conn.). Percentage specific lysis was calculated as described (39).

[3] = test system: HPV 16 E6 peptide-specific T-cell clones (subject 18); type: cell-based, human; settings: eight screen-positive T-cell clones of subject 18; HPV16 E6 121-145 region; 10 μM
[4] = test system: HPV 16 E6 peptide-specific T-cell clones (subject 2); type: cell-based, human
[5] = test system: peptide-pulsed Epstein-Barr Virus-transformed B-lymphoblastoid cell line cells; test: Chromium release assay, subject 2 T-cell clones as effectors; type: cell-based, human; settings: clones #76-2 and #78-2; three allogeneic B-LCL expressing HLA-B62; 10 μM peptide
Protocol: as §1

[6] = test system: Human Leukocyte Antigen class I molecule; test: Identification of the restricting Human Leukocyte Antigen molecules; type: cell-based
Protocol: as §1

[7] = high-risk HPV-positive subjects
[8] = subjects positive for HPV-16 related types

## YGTTLEQQYNKPLCDLLIRCINCQK (E6 91-115 peptide from immunodominant epitope region of Human Papilloma Virus 16 E6 protein) [SEQ ID NO. 29]
CD4+ T-cell; all subjects
  CD4+ T-cell responses, persistors: 2%
  CD4+ T-cell responses, regressors: 18%
CD4+ T-cell; [7]
  CD4+ T-cell responses, persistors: 2%
  CD4+ T-cell responses, regressors: 23%
CD4+ T-cell; [8]
  CD4+ T-cell responses, persistors: 0%
  CD4+ T-cell responses, regressors: 22%
CD8 T-cell
  Responses (number of immune responses detected towards the region): 11

## YMLDLQPETT [SEQ ID NO. 26]
[1]; cervical cancer patients
  patients whose cytotoxic T lymphocytes lysed peptide-pulsed targets: two of three patients
[1]
  Human Leukocyte Antigen restriction: Human Leukocyte Antigen-A2

## E6 131-145: 15-mer peptide in the HPV16 E6 121-145 region (RFHNIRGRWTGRCMS; UniProt P03126 131-145, looked up, fragment)
[2]; autologous B-LCL and B-LCL expressing A68 or A6801
  chromium release assay result: positive
[2]; other allogeneic B-LCL including HLA-6802
  chromium release assay result: negative
[3]
  enzyme-linked immunospot response to individual 15-mer peptides: positive

## RREVYDFAFRDLCIVYRDGNPYAVC (E6 46-70 peptide from immunodominant epitope region of Human Papilloma Virus 16 E6 protein) [SEQ ID NO. 31]
CD8 T-cell
  Responses (number of immune responses detected towards the region): 8

## EPDRAHYNIVTFCCKCDSTLRLCVQ (E7 46-70 peptide from immunodominant epitope region of Human Papilloma Virus 16 E7 protein) [SEQ ID NO. 30]
CD8 T-cell
  Responses (number of immune responses detected towards the region): 10

## KFYSKISEY (E6 75-83 peptide from immunodominant epitope region of Human Papilloma Virus 16 E6 protein) [SEQ ID NO. 1]
[4]; 10^−5M to 10^−10M
  serial dilution of the two peptides in enzyme-linked immunospot assay: equivalent
[4]; clones #76-2 and #78-2, autologous and five allogeneic HLA-B62 B-LCL, 10 μM
  recognition of peptide-pulsed B-LCL by E6 75-83-specific T cell clones: recognized
[4]; subject 2 T-cell clones
  number of spot forming units, 9-mer compared with surrounding 10-mers and 8-mers within: comparable number of spot forming units
  spot forming units per well, series of 9-mer peptides within E6 71-85: most number of spot forming units per well
[5]
  lysis of peptide-pulsed B-LCL in chromium release assay: lysed
[6]
  Human Leukocyte Antigen Restriction Element: HLA-B62

— US8926961B2, “HPV E6 protein T cell epitopes and uses thereof” (Board Of Trustees of The University Of Arkansas, priority 2007, dated 2015)
